In patent publication US11185588B2, “Pharmaceutical dosage forms comprising valganciclovir hydrochloride” (Hoffmann-La Roche Inc., priority 2006, dated 2021):

Columns and labels:
[1] = pH dependence of stability in aqueous solution; assay type: physicochemical; conditions: monohydrochloride
Procedure: (§1) The solubility of valganciclovir hydrochloride (active pharmaceutical ingredient, API) in aqueous solution is pH dependent. […] Valganciclovir hydrochloride is freely soluble under acidic conditions with a maximum solubility of greater than 200 mg/mL in the pH range of 4-6. The stability of valganciclovir hydrochloride is greatest at a pH<3.8.
The following excipients were used to prepare the formulations of Type I. Citric acid anhydrous was combined with sodium citrate to form the buffer system to ensure an acidic pH. […] Sodium benzoate was used as a preservative agent and sodium saccharin was used as an artificial sweetening agent. Maltose, a crystalline disaccharide carbohydrate, was used as a bulking agent (diluent) and to provide desirable mouth feel and sweetness. Strawberry flavor was used as the flavor of the oral solution.

[2] = assay type: physicochemical; conditions: pH 7
Procedure: as §1

physchem = assay type: physicochemical
Procedure: as §1

pKa = assay type: physicochemical
Procedure: as §1

[3] = Hygroscopicity on exposure to relative humidity; assay type: physicochemical; conditions: exposed to 80% relative humidity
From the text: Valganciclovir hydrochloride is moderately hygroscopic, with only small changes in moisture observed when the valganciclovir hydrochloride is exposed to moderate relative humidity. A weight gain of up to approximately 3% occurs when the valganciclovir hydrochloride is exposed to 80% relative humidity (for a total moisture content of up to approximately 8%). It is reversibly hygroscopic and will either absorb or release moisture under ambient humidity conditions, depending on the water content of the valganciclovir hydrochloride and the relative humidity.

pH at which stability is greatest ([1]; listed as valganciclovir): ≤ 3.8
pH at which stability is greatest [1]: < 3.8
n-octanol/water partition coefficient [2]: 0.0095
solubility (physchem; 25 °C, pH 7, water): 70 mg/mL
solubility (physchem; aqueous buffer): > 200 mg/mL
solubility in water (physchem; pH 7): 70 mg/mL
pKa (pKa): 7.6
total moisture content [3]: ≤ 8%
weight gain [3]: ≤ 3%
SMILES: CC(C)[C@H](N)C(=O)OCC(CO)OCn1cnc2c(=O)[nH]c(N)nc21.Cl (stereo partly drawn) [valganciclovir hydrochloride, L-Valine, 2-[(2-amino-1,6-dihydro-6-oxo-9H-purin-9-yl)methoxy]-3-hydroxypropyl ester, monohydrochloride]
